# Laboratory results as given in patent US10308960B2, “Methods for treating cells containing fusion genes” (University of Pittsburgh—of the Commonwealth System of …, priority 2014, dated 2019).
# Legend:
# [1] = tested on: PC3 cells expressing MAN2A1-FER; experiment: Killing of MAN2A1-FER expressing PC3 cells by kinase inhibitors; assay type: cell-based, human; settings: for cell death: PC3 transformed with pCDNA4-MAN2A1-FER-FLAG/pCDNA6, MAN2A1-FER expressing, Crisotinib low dosage 24 hours; for specific killing of MAN2A1-FER expressing cells (FIG. 23): expression induced with 5 μg/mL tetracycline
# [2] = tested on: PC3 cells not expressing MAN2A1-FER (Tet−); experiment: Killing of PC3 cells not expressing MAN2A1-FER (Tet−) by kinase inhibitors; assay type: cell-based, human; settings: same treatment, cells not expressing the fusion protein (Tet−)
# Description: FIG. 23. […] Prostate cancer cell line PC3 was transformed with pCDNA4-MAN2A1-FER-FLAG/pCDNA6. Expression of MAN2A1-FER was induced with 5 μg/mL tetracycline. Cells not treated with tetracycline nor any drug were used as background controls.
# The second approach is to target EGFR activation by EGFR inhibitors. These include erlotinib, cetuximab, […], canertinib and […]. Many of these drugs were FDA approved and is widely used in a variety of human solid tumors. To interrogate the effectiveness of EGFR activation interruption in treating prostate cancer, we treated MAN2A1-FER transformed PC3 cells with canertinib.
# [3] = tested on: SLC45A2-AMACR transformed PC3 cells without tetracycline (PC3/SLAM tet−); experiment: Ebselen cell growth inhibition, PC3/SLAM tet−; assay type: cell-based; settings: Homo sapiens, PC-3
# Text: (§1) FIG. 26. […] Untransformed RWPE1, NIH3T3 cells and SLC45A2-AMACR transformed PC3 cells treated with (PC3/SLAM tet+) or without tetracycline (PC3/SLAM tet−) were applied with indicated concentration of Ebselen. Cell growths relative to unapplied controls were examined.
# (§2) Therapeutic targeting at SLC45A2-AMACR using racemase inhibitor. To investigate whether targeting SLC45A2-AMACR is a viable approach to treat prostate cancer, we chose 2 approaches: 1) To intercept SLC45A2-AMACR/SHIP2-Akt pathway with small molecules; and 2) to block the ectopic racemase activity of SLC45A2-AMACR with ebselen or trifluoro-ibuprofen. […] This is probably due to Pten negative status of PC3 cells such that Akt pathway is fully activated regardless the presence of SLC45A2-AMACR. On the other hand, when we applied ebselen, the potent inhibitor of racemase of AMACR, to SLC45A2-AMACR expressing PC3 cells, 5 fold higher sensitivity of cell growth inhibition was found for PC3 cells transformed with pCDNA4-SLC45A2-AMACR-FLAG/pCDNA6 over the controls.
# NIH3T3 cells = experiment: Ebselen cell growth inhibition, NIH3T3; assay type: cell-based; settings: Mus musculus
# Text: as §1, §2
# [4] = tested on: SLC45A2-AMACR transformed PC3 cells treated with tetracycline (PC3/SLAM tet+); experiment: Ebselen cell growth inhibition, PC3/SLAM tet+; assay type: cell-based, human
# Text: as §1, §2
# RWPE1 cells = experiment: Ebselen cell growth inhibition, RWPE1; assay type: cell-based; settings: Homo sapiens, RWPE-1
# Text: as §1, §2
# [5] = tested on: PC3 cells containing TMEM135-CCDC67 breakpoint; experiment: Ganciclovir cell death after co-transfection of TK donor DNA and nickase-gRNA vector, breakpoint cells; assay type: cell-based, human
# Description: (§3) FIG. 28A-B. Genetic therapy targeting at TMEM135-CCDC67 genome breakpoint.
# (§4) The technique described above was applied to cells having the TMEM135-CCDC67 breakpoint. Since none of the fusion genes identified so far was present in prostate cancer cell lines, a TMEM135-CCDC67 genome breakpoint was created that is identical to the prostate cancer sample were analyzed. The expression of the TMEM135-CCDC67 breakpoint was driven by a CMV promoter. Subsequently, a donor DNA was constructed that encompassed HSV-1 TK and the splicing sites of TMEM135 exon 14. When this donor DNA was co-transfected with a vector that expresses gRNA targeting at the TMEM135-CCDC67 breakpoint into PC3 cells containing this genome breakpoint, integration of TK into the genome was identified (FIG. 28A). […] This is remarkable in considering only 5-10% transfection efficiency using conventional liposome method. […] In light of this promising result, both TMEM135-CCDC67-TK cassette and NicKase-gRNATMEM135-CCDC67-BrkPt DNA are now in the process of packaging into Adenovirus. We will infect the recombinant virus into these cells in the future experiments. This will dramatically improve the delivery efficiency in the subsequent animal study and probably human.
# [6] = tested on: PC3 cells containing TMEM135-CCDC67 breakpoint (PC3 + pCMV-BP); experiment: FACS analysis of apoptotic cells (Annexin V), PC3 with breakpoint; assay type: cell-based, human; settings: PC3 with breakpoint infected with both adenoviruses
# Description: (§5) FIG. 31A-B. Treatment with nucleotide analogue ganciclovir kills cancer cells expressing EGFP-tk. (A) PC3 or DU145 cells containing the TMEM135-CCDC67 fusion gene were infected with pAD5-Cas9^D10A-gRNA^TMEM135int13-gRNA^CCDC67int9 and pAD-TMEM135int13-EGFP-tk-CCDC67int9. These cells were then incubated with various concentrations of ganciclovir for 24 hours. Cell deaths were then quantified with phycoerythrin labeled Annexin V through flow cytometer. PC3 or DU145 cells harboring no TMEM135-CCDC67 breakpoint were used as controls. (B) Representative sample of cell death induced by ganciclovir on cells infected with pAD5-Cas9^D10A-gRNA^TMEM135int13-gRNA^CCDC67int9 and pAD-TMEM135int13-EGFP-tk-CCDC67int9, and treated with 5 μg/ml ganciclovir. PC3 or DU145 cells harboring no TMEM135-CCDC67 breakpoint were used as controls. Apoptosis was indicated by Annexin V staining.
# (§6) Fluorescence activated cell sorting (FACS) analysis of apoptotic cells. The assays were previously described.^8-16 Briefly, the cells treated with pAD5-Cas9^D10A-gRNA^TMEM135int13-gRNA^CCDC67int9/pAD-TMEM135int13-EGFP-tk-CDC67int9, and various concentrations of ganciclovir were trypsinized and washed twice with cold PBS. […] The fluorescence stained cells were analyzed at the fluorescence emission at 533 nm (FL2). […] For each acquisition, 10,000 to 20,000 cells were sorted based on the fluorescence color of the cells. […]
# [7] = tested on: DU145 cells containing TMEM135-CCDC67 breakpoint (DU145 + pCMV-BP); experiment: FACS analysis of apoptotic cells (Annexin V), DU145 with breakpoint; assay type: cell-based; settings: DU145 with breakpoint infected with both adenoviruses
# Description: as §5, §6
# [8] = tested on: PC3 cells harboring no TMEM135-CCDC67 breakpoint (PC3 + pCMV); experiment: FACS analysis of apoptotic cells (Annexin V), PC3 without breakpoint; assay type: cell-based, human; settings: PC3, equally infected, ganciclovir up to 100 μg/ml
# Description: as §5, §6
# [9] = tested on: DU145 cells harboring no TMEM135-CCDC67 breakpoint (DU145 + pCMV); experiment: FACS analysis of apoptotic cells (Annexin V), DU145 without breakpoint; assay type: cell-based; settings: DU145, equally infected, ganciclovir up to 100 μg/ml
# Description: as §5, §6
# [10] = tested on: PC3 cells without TMEM135-CCDC67 breakpoint; experiment: Ganciclovir cell death after co-transfection of TK donor DNA and nickase-gRNA vector, cells without breakpoint; assay type: cell-based, human; settings: same treatment
# Description: as §3, §4
smiles,measurement,setting,value
Cn1cnc2c(F)c(Nc3ccc(Br)cc3Cl)c(C(=O)NOCCO)cc21 [AZD6244],differential killing effect (MAN2A1-FER expressing vs not),"[1]; MEK interception, data not shown",largely moderated and vanished
C[C@@H](Oc1cc(-c2cnn(C3CCNCC3)c2)cnc1N)c1c(Cl)ccc(F)c1Cl [Crisotinib],cell death,[1],31%
same,lowering of cancer killing EC50 by expression of MAN2A1-FER,"[1]; dosage effect analysis, expressing vs not expressing",~100 fold
same,specific killing of MAN2A1-FER expressing cells (FIG. 23),[1],specifically kills cells expressing MAN2A1-FER
same,killing of cells that do not express MAN2A1-FER,[2],hardly killed
"O=c1c2ccccc2[se]n1-c1ccccc1 [Ebselen, ebselen]",IC50,[3],173 µM
same,IC50,NIH3T3 cells,> 300 µM
same,IC50,"[4]; Homo sapiens, PC-3, PC3/SLAM tet+",37 µM
same,higher sensitivity of cell growth inhibition over the controls,[4]; PC3 transformed with pCDNA4-SLC45A2-AMACR-FLAG/pCDNA6 vs controls,5 fold
same,IC50,RWPE1 cells,> 300 µM
C=CC(=O)Nc1cc2c(Nc3ccc(F)c(Cl)c3)ncnc2cc1OCCCN1CCOCC1 [canertinib],cell death,[1],34%
same,specific killing of MAN2A1-FER expressing cells (FIG. 23),[1],specifically kills cells expressing MAN2A1-FER
same,killing of cells that do not express MAN2A1-FER,[2],minimal
"Nc1nc2c(ncn2COC(CO)CO)c(=O)[nH]1 [ganciclovir, 9-(1,3-dihydroxy-2-propoxymethyl)guanine]",increase of cell death,"[5]; PC3 with breakpoint co-transfected with donor DNA and gRNA vector, liposome method",8 fold
same,specific killing of breakpoint containing cells (FIG. 28B),[5]; transfected with pTMEM135-CCDC67-TK-GFP and pNicKase-RFP-gRNA-TMEM135-CCDC67-BrkPt,specific killing
same,EC50,"[6]; Homo sapiens, PC-3, 24 hours, read-out: ganciclovir concentration at which killing reached 50% of its maximal level",0.075 µg/mL
same,ganciclovir concentration at which killing was at the peak,[6],5 µg/mL
same,ganciclovir concentration at which killing was at the peak,[7],5 µg/mL
same,EC50,"[7]; Homo sapiens, DU-145, 24 hours, read-out: ganciclovir concentration at which killing reached 50% of its maximal level",0.075 µg/mL
same,cell deaths in cells containing no breakpoint,[8],No significant cell deaths
same,cell deaths in cells containing no breakpoint,[9],No significant cell deaths
same,cell death,[10],minimal cell death
